The series can be described thus: Assay (IV) determination of solubility. Type of series: physicochemical. In a few lines:
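Polypeptide in water (~500 nmol/ml) mixed 1:1 with 100 mM glycylglycine (pH 3.0–5.0) or bistrispropane (pH 6.0–8.0) buffers. Held 18 hours at room temperature, then centrifuged. Polypeptide remaining in solution quantified by HPLC.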

The mark [1] stands for this setting: pH 3, pH 3.0, read-out: Solubility pH 3.0.
The mark [2] stands for this setting: pH 4, pH 4.0, 18 hours at room temperature, Table 2, read-out: Solubility pH 4.0.
[3] abbreviates: pH 4, pH 4.0, read-out: Solubility pH 4.0.
Where [4] appears, read: pH 5, pH 5.0, read-out: Solubility pH 5.0.
Setting [5] is: pH 6, pH 6.0, read-out: Solubility pH 6.0.
[6] abbreviates: pH 6.5, pH 6.5, read-out: Solubility pH 6.5.
The mark [7] stands for this setting: pH 7, pH 7.0, read-out: Solubility pH 7.0.
Where [8] appears, read: pH 7.5, pH 7.5, read-out: Solubility pH 7.5.
[9] abbreviates: pH 7, pH 7.0, 18 hours at room temperature, Table 3, read-out: Solubility pH 7.0.
[10] abbreviates: pH 8, pH 8.0, read-out: Solubility pH 8.0.

≈ marks a conversion by molar mass, not a printed value. Read-outs that look alike come from different tables or passages of the source. Starred links: 1 amine or outer side, 2 acyl side, 3 side chain; linkers in the order of their positions; H or OH if unused. Positions of bridges follow the written chain, without caps; N, C: chain ends. Residues, ends and D or L forms follow the SMILES beside them. Groups on a side chain read outwards from the residue. *: point of attachment. C20 diacid = O=C(O)CCCCCCCCCCCCCCCCCCC(=O)*; γGlu = O=C(O)[C@H](CCC(=O)[*:2])N[*:1]; AEEA = NCCOCCOCC(=O)O

As a reminder, the solubility is the concentration that dissolves in the medium under given conditions.

Consider `CC[C@H](C)[C@H](NC(=O)[C@@H]1CCCN1C(=O)CNC(=O)[C@H](Cc1ccccc1)NC(=O)[C@H](CC(N)=O)NC(=O)[C@H](CCCCNC(=O)COCCOCCNC(=O)COCCOCCNC(=O)CC[C@H](NC(=O)CCCCCCCCCCCCCCCCCCC(=O)O)C(=O)O)NC(=O)[C@H](CO)NC(=O)[C@H](CO)NC(=O)[C@H](Cc1c[nH]cn1)NC(=O)[C@H](Cc1c[nH]cn1)NC(=O)[C@H](CC(C)C)NC(=O)[C@H](Cc1ccccc1)NC(=O)[C@H](CCC(=O)O)NC(=O)[C@H](C)NC(=O)[C@H](CC(C)C)NC(=O)[C@H](CCCNC(=N)N)NC(=O)[C@H](CCC(N)=O)NC(=O)[C@@H](NC(=O)[C@H](C)NC(=O)[C@@H]1CSSC[C@H](NC(=O)[C@@H](N)CCCCN)C(=O)N[C@@H](CC(N)=O)C(=O)N[C@@H]([C@@H](C)O)C(=O)N[C@@H](C)C(=O)N[C@@H]([C@@H](C)O)C(=O)N1)[C@@H](C)O)C(=O)N[C@@H](CC(C)C)C(=O)N[C@@H](CO)C(=O)N[C@@H](CO)C(=O)N[C@H](C(=O)N[C@@H](CC(N)=O)C(=O)N[C@H](C(=O)NCC(=O)N[C@@H](CO)C(=O)N[C@@H](Cc1c[nH]cn1)C(=O)N[C@H](C(=O)N[C@@H](Cc1ccc(O)cc1)C(N)=O)[C@@H](C)O)C(C)C)[C@@H](C)O` [Example 148, N-epsilon21-[2-(2-{2-[2-(2-{2-[(S)-4-Carboxy-4-(19-carboxyheptadecanoylamino)butyrylamino]ethoxy}ethoxy)acetylamino]ethoxy}ethoxy)acetyl]-[Glu14,His17,Lys21,Ser28,Ser29,His35]-pramlintide] (H-KCNTATCATQRLAEFLHHSSK([AEEA-AEEA-γGlu-C20 diacid])NFGPILSSTNVGSHTY-NH2; disulfide 2-7), for which the solubility is above 200 µM under setting [1]; above 200 µM under setting [2]; above 200 µM under setting [3]; above 200 µM under setting [4]; 51 µM (≈ 243 µg/mL) under setting [5]; 19 µM (≈ 90.5 µg/mL) under setting [6]. Moreover, the solubility runs as follows: under setting [7], 1 µM (≈ 4.76 µg/mL); under setting [8], 1 µM (≈ 4.76 µg/mL).

As to `CC[C@H](C)[C@H](NC(=O)[C@@H]1CCCN1C(=O)CNC(=O)[C@H](Cc1ccccc1)NC(=O)[C@H](CC(N)=O)NC(=O)[C@H](CCCCNC(=O)COCCOCCNC(=O)COCCOCCNC(=O)CC[C@H](NC(=O)CCCCCCCCCCCCCCCCCCC(=O)O)C(=O)O)NC(=O)[C@H](CO)NC(=O)[C@H](CO)NC(=O)[C@H](CCCNC(=N)N)NC(=O)[C@@H](NC(=O)[C@H](CC(C)C)NC(=O)[C@H](Cc1ccccc1)NC(=O)[C@H](CCC(=O)O)NC(=O)[C@H](C)NC(=O)[C@H](CC(C)C)NC(=O)[C@H](CCCNC(=N)N)NC(=O)[C@H](CCC(N)=O)NC(=O)[C@@H](NC(=O)[C@H](C)NC(=O)[C@@H]1CSSC[C@H](NC(=O)[C@@H](N)CCCCN)C(=O)N[C@@H](CC(N)=O)C(=O)N[C@@H]([C@@H](C)O)C(=O)N[C@@H](C)C(=O)N[C@@H]([C@@H](C)O)C(=O)N1)[C@@H](C)O)C(C)C)C(=O)N[C@@H](CC(C)C)C(=O)N[C@@H](CO)C(=O)N[C@@H](CCCNC(=N)N)C(=O)N[C@H](C(=O)N[C@@H](CC(N)=O)C(=O)N[C@H](C(=O)NCC(=O)N[C@@H](CO)C(=O)N[C@@H](CCCNC(=N)N)C(=O)N[C@H](C(=O)N[C@@H](Cc1ccc(O)cc1)C(N)=O)[C@@H](C)O)C(C)C)[C@@H](C)O` [Example 150, N-epsilon21-[2-(2-{2-[2-(2-{2-[(S)-4-Carboxy-4-(19-carboxyheptadecanoylamino)butyrylamino]ethoxy}ethoxy)acetylamino]ethoxy}ethoxy)acetyl]-[Glu14,Arg18,Lys21,Ser28,Arg29,Arg35]-pramlintide] (H-KCNTATCATQRLAEFLVRSSK([AEEA-AEEA-γGlu-C20 diacid])NFGPILSRTNVGSRTY-NH2; disulfide 2-7), the solubility is above 200 µM under setting [1]; above 200 µM under setting [2]; above 200 µM under setting [3]; above 200 µM under setting [4]; above 200 µM under setting [5]; 163 µM (≈ 788 µg/mL) under setting [6]. Also, the solubility under setting [9] was above 200 µM; the solubility (pH 7, pH 7.0, Table 8, read-out: Solubility pH 7.0) was above 200 µM; the solubility (pH 7, pH 7.0, Table 9, read-out: Solubility pH 7.0) is above 200 µM; the solubility under setting [7] was above 200 µM; the solubility (pH 7.5, pH 7.5, Table 9, read-out: Solubility pH 7.5) was above 200 µM; the solubility under setting [8] is above 200 µM. Also, the solubility under setting [10] was above 200 µM.

Take `CC[C@H](C)[C@H](NC(=O)[C@@H]1CCCN1C(=O)CNC(=O)[C@H](Cc1ccccc1)NC(=O)[C@H](CC(N)=O)NC(=O)[C@H](CCC(N)=O)NC(=O)[C@H](CO)NC(=O)[C@H](CO)NC(=O)[C@H](Cc1c[nH]cn1)NC(=O)[C@H](CCCNC(=N)N)NC(=O)[C@H](CC(C)C)NC(=O)[C@H](Cc1ccccc1)NC(=O)[C@H](CCC(=O)O)NC(=O)[C@H](C)NC(=O)[C@H](CC(C)C)NC(=O)[C@H](CCCNC(=N)N)NC(=O)[C@H](CCC(N)=O)NC(=O)[C@@H](NC(=O)[C@H](C)NC(=O)[C@@H]1CSSC[C@H](NC(=O)[C@H](CCCNC(=N)N)NC(=O)[C@H](CCC(=O)O)NC(=O)[C@H](CCC(=O)O)NC(=O)CC[C@H](NC(=O)CCCCCCCCCCCCCCCCCCC(=O)O)C(=O)O)C(=O)N[C@@H](CC(N)=O)C(=O)N[C@@H]([C@@H](C)O)C(=O)N[C@@H](C)C(=O)N[C@@H]([C@@H](C)O)C(=O)N1)[C@@H](C)O)C(=O)N[C@@H](CC(C)C)C(=O)N1CCC[C@H]1C(=O)N1CCC[C@H]1C(=O)N[C@H](C(=O)N[C@@H](CCC(N)=O)C(=O)N[C@H](C(=O)NCC(=O)N[C@@H](CO)C(=O)N[C@@H](CCC(N)=O)C(=O)N[C@H](C(=O)N1CCC[C@H]1C(N)=O)[C@@H](C)O)C(C)C)[C@@H](C)O` [Example 159, N-alpha-[(S)-4-Carboxy-4-(19-carboxynonadecanoylamino)butyryl]-Glu-Glu-[Arg1,Glu14,Arg17,Gln21,Gln31,Gln35,Pro37]-pramlintide] ({C20 diacid-γGlu}-EERCNTATCATQRLAEFLRHSSQNFGPILPPTQVGSQTP-NH2; disulfide 4-9): the solubility is, setting by setting: under setting [1], above 200 µM; under setting [2], above 200 µM; under setting [3], above 200 µM; under setting [4], above 200 µM; under setting [5], above 200 µM; under setting [6], above 200 µM. The solubility was above 200 µM under setting [9], above 200 µM under setting [7], above 200 µM under setting [8] and above 200 µM under setting [10].

As for `CC[C@H](C)[C@H](NC(=O)[C@@H]1CCCN1C(=O)CNC(=O)[C@H](Cc1ccccc1)NC(=O)[C@H](CCC(N)=O)NC(=O)[C@H](CCC(N)=O)NC(=O)[C@H](CO)NC(=O)[C@H](CO)NC(=O)[C@H](Cc1c[nH]cn1)NC(=O)[C@H](CCCNC(=N)N)NC(=O)[C@H](CC(C)C)NC(=O)[C@H](Cc1ccccc1)NC(=O)[C@H](CCC(=O)O)NC(=O)[C@H](C)NC(=O)[C@H](CC(C)C)NC(=O)[C@H](CCCNC(=N)N)NC(=O)[C@H](CCC(N)=O)NC(=O)[C@@H](NC(=O)[C@H](C)NC(=O)[C@@H]1CSSC[C@H](NC(=O)[C@H](CCCNC(=N)N)NC(=O)[C@H](CCC(=O)O)NC(=O)[C@H](CCC(=O)O)NC(=O)CC[C@H](NC(=O)CCCCCCCCCCCCCCCCCCC(=O)O)C(=O)O)C(=O)N[C@@H](CC(N)=O)C(=O)N[C@@H]([C@@H](C)O)C(=O)N[C@@H](C)C(=O)N[C@@H]([C@@H](C)O)C(=O)N1)[C@@H](C)O)C(=O)N[C@@H](CC(C)C)C(=O)N1CCC[C@H]1C(=O)N1CCC[C@H]1C(=O)N[C@H](C(=O)N[C@@H](CCC(N)=O)C(=O)N[C@H](C(=O)NCC(=O)N[C@@H](CO)C(=O)N[C@@H](CCC(N)=O)C(=O)N[C@H](C(=O)N1CCC[C@H]1C(N)=O)[C@@H](C)O)C(C)C)[C@@H](C)O` [Example 160, N-alpha-[(S)-4-Carboxy-4-(19-carboxynonadecanoylamino)butyryl]-Glu-Glu-[Arg1,Glu14,Arg17,Gln21,Gln22,Gln31,Gln35,Pro37]-pramlintide] ({C20 diacid-γGlu}-EERCNTATCATQRLAEFLRHSSQQFGPILPPTQVGSQTP-NH2; disulfide 4-9), the solubility was above 200 µM under setting [1]; above 200 µM under setting [2]; above 200 µM under setting [3]; above 200 µM under setting [4]; above 200 µM under setting [5]; above 200 µM under setting [6]. Besides, the solubility under setting [9] is above 200 µM, the solubility under setting [7] was above 200 µM, the solubility under setting [8] was above 200 µM and the solubility under setting [10] is above 200 µM.

Values taken from US8722849B2, “Polypeptides” (Novo Nordisk A/S, priority 2011, dated 2014).
